Patent US20050119301A1, “Treatment of restenosis” (priority 2001, published 2005)

Experiments:
[1] = 45 mg over 5 to 10 weeks; cited from earlier work
LDL = LDL antioxidation test (CuCl2-initiated LDL oxidation, lag time); format: biochemical, human; conditions: Table 2, 10 μM; for Lag Time: control 20 min
[2] = tested on: IMA-derived human VSMC primed with PDGF BB; assay: PDGF BB-induced VSMC DNA synthesis, proliferation and cell number; format: cell-based; conditions: Homo sapiens, VSMC, 3 h, read-out: inhibition of PDGF BB-induced DNA synthesis ([3H]-thymidine incorporation)
Procedure: Cell proliferation was induced by a variety of growth factors such as serum and platelet derived growth factor (PDGF).
Media was changed to LG serum-free DMEM and cells were treated with [^3H]-thymidine at 1 μCi/well for 3 hours. Cells were washed twice with ice cold Dulbecco's PBS. Next, ice cold 0.2M HClO4 (1 ml/well) was added and cells were incubated on ice for 30 min. Cells were then washed three times with 0.5 ml/well of ice cold 0.2M HClO4. Media (0.5 ml/well of 0.2 M NaOH) was replaced and cells were incubate at 37° C. After 1 hour, cells were treated with acetic acid (6%, 0.2 ml/well), transferred to scintillation vials with 3 ml scintillation liquid (Instagel) and counted for 2 min per vial.
The effect of Cpd. 5 and Cpd. 7 was tested further in IMA-derived human VSMC primed with PDGF BB instead of serum. […] (FIG. 12). This effect was equivalent to that observed with estradiol. Cpd.
In further experiments Cpd. […] 7 at 100 nmol/L), indicating ER-mediation. […] 7 (1-100 nmol/L).

[3] = tested on: rat isolated aortic rings; assay: Protection against endothelium damage induced by oxidised LDL, acetylcholine dilatation (Protocol 3); conditions: ox-LDL 0.3 mg protein/ml; β-estradiol 10 pg/ml, Cpd. 5 300 ng/ml, Cpd. 7 1 μg/ml, Cpd. 8 and 12 3 μg/ml
Procedure: (§1) Male Sprague-Dawley rats (250±50 g) were gassed with 80% CO2 and 20% O2 until killed. The thoracic aorta was excised and quickly placed in ice-cold Krebs modified solution composed of NaCl […], […] 4.7 mM, MgSO4 7H2O 1.17 mM, NaHCO3 25 mM, KH2PO4 1.18 mM, CaCl2 2.5 mM, glucose 11 mM and EDTA 0.03 mM. It was then trimmed of fat and connective tissue and cut into 2-3 mm wide rings. Each ring was mounted on two parallel stainless steel hooks in a single water-jacketed 3 ml organ bath containing modified Krebs solution maintained at 37° C. and bubbled with 95% O2 plus 5% CO2. The lower hook was attached to a movable support leg and the upper hook to an FTO3 force transducer (Grass Scientific Instruments, Mitutoyo, Japan) for isometric recordings. Changes in force were amplified (Quadbridge amplifier, Scientific Concepts Inc., Victoria, Australia) and recorded on a MacLab 8E data acquisition system (Adinstruments Pty Ltd., NSW, Australia) linked to an Apple computer (Apple Computer Inc, Cupertina, Calif.). Rings were set at an initial tension of 2 g and allowed to equilibrate for 30 minutes after which time they were re-set to 2 g tension before the commencement of each experimental protocol.
Full concentration response curves to phenylephrine were constructed from which the concentration giving a submaximal contraction of approximately 80% was selected (usually 0.3 μM). Tissues were then constricted with phenylephrine at the selected concentration and allowed to plateau. Full concentration dilatory curves were then constructed to acetylcholine. […]
Human plasma was obtained from the blood bank. […] The protein content of the final LDL fraction obtained was determined by the simplified protein assay method of Lowry. […]
Contractile responses are expressed in g tension (mean+standard error of the mean). Dilatory responses are expressed as a percentage of the contractile force generated by the pre-constricting agent used. […]

[4] = tested on: rat isolated aortic rings; assay: Vasodilatory capacity in noradrenaline pre-constricted aortic rings and mechanism of action (Protocol 2a/2b)
Procedure: as §1
A full concentration response to noradrenaline was obtained. From this the concentration producing a submaximal contraction of approximately 80% was selected (0.03-0.3 μM). The ring was then constricted with this submaximal concentration and allowed to plateau before full concentration-relaxation curves were obtained to β-estradiol and Cpds. 5, 7, 8 and 12 and the vehicle DMSO (at equi-volume). Only one compound was studied with any one ring from any one animal.
Full relaxation curves were obtained to Cpds. 5, 7, 8 and 12 and β-estradiol in the absence and presence of the endothelium (rings were denuded of endothelium by gentle rotation of the lumen against a rough surface), the nitric oxide synthase inhibitor nitro-L-arginine (NOLA 10 μM; with the exception of Cpd. 8, due to limited supply of the compound), KCl 40 mM (to inhibit endothelium derived hyperpolarising factor), the cyclo-oxygenase inhibitor indomethacin (10 μM) and the soluble guanylate cyclase inhibitor 1H-[1,2,4]oxadiazolo[4,3-a]quinoxalin-1-one (ODQ; 10 μM). Only one compound with only one intervention was tested on any one ring from any one animal.
(§2) Contractile responses are expressed in g tension (mean+standard error of the mean). Dilatory responses are expressed as a percentage of the contractile force generated by the pre-constricting agent used. Individual concentration-response curves for noradrenaline and acetylcholine±the interventions used were fitted to a logistic equation of the form […] where E is the response, M is the maximum response and K is the concentration eliciting 50% of the maximum response (ie neg log EC50).

rat thoracic aorta = assay: Contractile curves to noradrenaline in rat isolated aortic rings (Protocol 1); conditions: test compound 1 μg/ml
Procedure: as §1
Full concentration-contractile curves were obtained to noradrenaline (0.1 nM-[…]) in the absence and presence of β-estradiol (1 μg/ml); Cpd. 5 (0.1 and 1 μg/ml); Cpd. 7 (0.1 and 1 μg/ml); Cpd. 8 (0.1 and 1 μg/ml) and Cpd. 12 (1 μg/ml) and the vehicle equi-volume DMSO. Only one compound at any one concentration was tested on any one ring from any one animal.
as §2

[5] = Distribution of isoflavones in lipoprotein subfractions of whole plasma; format: in vitro ADME
Procedure: Cpd. 1 ([…]), was incubated with whole plasma for 0 h, 4 h and 8 h. The different subfractions LDL/VLDL, HDL and protein (lipoprotein free) were then analysed for their Cpd. 1 concentration. Cpd. 1 was used because it had the most similar polarity to the isoflavone synthetic derivatives.

O=c1c(-c2ccc(O)cc2)coc2cc(O)cc(O)c12 [Cpd. 3, genistein]
effect on blood lipid concentrations [1]: no significant effect on blood lipid concentrations | % Increase in Time (LDL): 0% | Lag Time (LDL): 20 min

C[C@]12CC[C@@H]3c4ccc(O)cc4CC[C@H]3[C@@H]1CC[C@@H]2O [β-estradiol, 1,3,5[10]-estratriene-3,17β-diol, reference compound]
inhibition at 0.001 µM [2]: 27% | inhibition at 0.01 µM [2]: 27% | inhibition at 0.1 µM [2]: 33% | protective effect against ox-LDL inhibition of acetylcholine dilatation (in words) [3]: diminished the effect of ox-LDL | vasodilatory response: effect of high KCl levels ([4]; KCl 40 mM): inhibited | vasodilatory response: effect of nitro-L-arginine (NOLA) ([4]; NOLA 10 μM): inhibited | vasodilatory response: effect of ODQ ([4]; ODQ 10 μM): inhibited | vasodilatory response: effect of removal of the endothelium ([4]; denuded vs intact endothelium): inhibited | vasodilatory response: effect of indomethacin ([4]; indomethacin 10 μM): did not influence | y max, Noradrenaline + Test compound (B) (rat thoracic aorta; mean ± SEM): 0.22 ± 0.12 g tension | y max Difference (A − B) (rat thoracic aorta; noradrenaline alone minus noradrenaline + compound): 2.1 ± 0.31 g tension

COc1cc2c(=O)c(-c3ccc(O)cc3)coc2cc1O [Glycitein]
% Increase in Time (LDL): 0% | Lag Time (LDL): 20 min

O=c1c(-c2ccc(O)cc2)coc2cc(O)ccc12 [Cpd. 1, daidzein]
amount associated with the lipoproteins, dependence on time and concentration [5]: increased with time, but not with concentration | % Increase in Time (LDL): 0% | Lag Time (LDL): 19 min

COc1ccc(-c2coc3cc(O)cc(O)c3c2=O)cc1 [Biochanin]
% Increase in Time (LDL): 0% | Lag Time (LDL): 20 min
